# Data published in patent US11655235B2, “Pyrrolidine and piperidine compounds” (YUHAN CORPORATION, priority 2019, dated 2023).
# Experiments:
# Assay type in all cases: biochemical
# recombinant human DPP7 = molecular target: T1, recombinant human DPP7 (Homo sapiens, UniProt Q9UHL4); assay: DPP7 inhibition, fluorogenic substrate Lys-Pro-AMC; conditions: recombinant human DPP7
# T1 construct: purchased R&D Systems
# Procedure, shortened: (§1)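 Inhibitors are titrated in an 8-point series into the enzyme's assay buffer (DMSO no more than 0.5%). Substrate cleavage at 25 °C is followed by fluorescence, excitation 380 nm and emission 460 nm. IC50 values come from a four-variable logistic model.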
# recombinant human DPP9 = molecular target: T2, recombinant human DPP9 (Homo sapiens, UniProt Q86TI2); assay: DPP9 inhibition, fluorogenic substrate H-Gly-Pro-AMC; conditions: recombinant human DPP9
# T2 construct: purchased R&D Systems
# Procedure, shortened: as §1
# recombinant human PREP = molecular target: T3, recombinant human PREP (Homo sapiens, UniProt P48147); assay: PREP inhibition, fluorogenic substrate Z-Gly-Pro-AMC; conditions: Inhibitory Activity (IC50, nM) PREP, recombinant human PREP
# T3 construct: purchased R&D System
# T3 sequence (P48147 1-710): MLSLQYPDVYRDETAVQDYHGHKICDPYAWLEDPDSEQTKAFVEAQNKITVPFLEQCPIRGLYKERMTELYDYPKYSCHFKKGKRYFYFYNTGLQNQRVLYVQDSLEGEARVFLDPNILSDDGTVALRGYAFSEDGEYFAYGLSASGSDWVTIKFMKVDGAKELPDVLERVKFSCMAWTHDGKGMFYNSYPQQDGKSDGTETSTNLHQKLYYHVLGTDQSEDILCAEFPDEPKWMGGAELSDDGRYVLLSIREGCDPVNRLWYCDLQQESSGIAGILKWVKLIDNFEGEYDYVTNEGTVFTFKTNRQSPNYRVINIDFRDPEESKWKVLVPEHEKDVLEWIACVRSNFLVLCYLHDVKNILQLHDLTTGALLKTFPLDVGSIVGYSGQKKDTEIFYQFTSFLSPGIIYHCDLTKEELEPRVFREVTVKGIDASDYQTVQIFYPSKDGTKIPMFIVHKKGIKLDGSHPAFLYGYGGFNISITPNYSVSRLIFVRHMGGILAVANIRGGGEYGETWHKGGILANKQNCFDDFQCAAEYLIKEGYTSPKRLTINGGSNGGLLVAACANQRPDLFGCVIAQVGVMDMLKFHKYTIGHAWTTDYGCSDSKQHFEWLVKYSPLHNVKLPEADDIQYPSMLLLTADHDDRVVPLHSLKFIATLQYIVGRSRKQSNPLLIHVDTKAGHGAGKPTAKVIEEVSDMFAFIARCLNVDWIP
# Procedure, shortened: as §1
# Recombinant human FAP = molecular target: T4, Recombinant human FAP (Homo sapiens, UniProt Q12884); assay: FAP FRET assay, FGF21-sequence FRET peptide substrate; conditions: FRET peptide with human FGF21 sequence, 6 μM, 37° C.
# T4 construct: purchased R&D systems
# T4 sequence (Q12884 1-760): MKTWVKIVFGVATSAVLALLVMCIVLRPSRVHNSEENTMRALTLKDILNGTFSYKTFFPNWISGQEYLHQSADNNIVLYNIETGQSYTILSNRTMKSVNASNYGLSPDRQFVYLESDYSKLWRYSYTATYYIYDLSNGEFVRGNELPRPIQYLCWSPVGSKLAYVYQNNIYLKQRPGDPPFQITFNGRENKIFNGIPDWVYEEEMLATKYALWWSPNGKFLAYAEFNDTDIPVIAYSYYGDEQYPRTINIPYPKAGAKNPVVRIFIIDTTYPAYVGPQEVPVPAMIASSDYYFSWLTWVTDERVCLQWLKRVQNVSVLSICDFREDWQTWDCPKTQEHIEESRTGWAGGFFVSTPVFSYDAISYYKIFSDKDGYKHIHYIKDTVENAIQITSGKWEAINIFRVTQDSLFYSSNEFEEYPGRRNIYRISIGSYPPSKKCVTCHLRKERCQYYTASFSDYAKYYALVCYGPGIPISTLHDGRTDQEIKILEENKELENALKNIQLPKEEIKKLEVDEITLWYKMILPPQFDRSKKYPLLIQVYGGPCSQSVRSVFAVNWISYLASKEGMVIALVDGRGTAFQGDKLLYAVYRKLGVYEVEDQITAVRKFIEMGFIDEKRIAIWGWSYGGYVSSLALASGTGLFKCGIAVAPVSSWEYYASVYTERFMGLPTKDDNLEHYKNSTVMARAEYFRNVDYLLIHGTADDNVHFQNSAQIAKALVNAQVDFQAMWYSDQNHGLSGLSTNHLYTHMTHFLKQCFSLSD
# Procedure, shortened: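 FRET peptide bearing human FGF21 sequence (6 μM final) cleaved by 10 ng recombinant human FAP at 37° C in HEPES pH 7.2 buffer with NaCl, BSA and EDTA, DMSO up to 0.1%. Signal-rate decrease versus uninhibited control fitted to a four-variable logistic model for IC50.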
# DPP4 = DPP4 (Homo sapiens, UniProt P27487); assay: DPP4 inhibition, fluorogenic substrate H-Gly-Pro-AMC; set-up: purchased R&D Systems; conditions: recombinant human DPP4
# Chain of DPP4 (P27487 whole entry): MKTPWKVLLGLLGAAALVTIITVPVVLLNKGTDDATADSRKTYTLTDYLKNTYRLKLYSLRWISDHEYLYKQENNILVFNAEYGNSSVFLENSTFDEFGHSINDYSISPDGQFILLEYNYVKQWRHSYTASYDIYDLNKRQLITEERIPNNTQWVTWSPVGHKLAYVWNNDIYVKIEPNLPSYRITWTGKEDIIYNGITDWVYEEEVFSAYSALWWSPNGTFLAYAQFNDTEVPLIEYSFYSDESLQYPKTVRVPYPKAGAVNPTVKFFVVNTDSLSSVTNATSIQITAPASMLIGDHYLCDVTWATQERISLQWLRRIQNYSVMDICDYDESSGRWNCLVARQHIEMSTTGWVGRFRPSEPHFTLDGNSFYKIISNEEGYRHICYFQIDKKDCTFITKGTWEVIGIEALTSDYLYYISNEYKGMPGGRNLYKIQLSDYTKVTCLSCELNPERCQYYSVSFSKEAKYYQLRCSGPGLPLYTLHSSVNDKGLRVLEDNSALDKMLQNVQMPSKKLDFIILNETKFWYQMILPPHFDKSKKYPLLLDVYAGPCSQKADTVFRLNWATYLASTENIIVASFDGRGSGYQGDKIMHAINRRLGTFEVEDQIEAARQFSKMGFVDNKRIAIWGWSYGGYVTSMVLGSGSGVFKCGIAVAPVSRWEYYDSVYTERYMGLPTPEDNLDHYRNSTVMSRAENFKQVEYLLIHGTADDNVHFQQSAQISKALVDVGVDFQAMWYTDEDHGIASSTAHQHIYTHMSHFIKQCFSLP
# T2 sequence (Q86TI2 whole entry): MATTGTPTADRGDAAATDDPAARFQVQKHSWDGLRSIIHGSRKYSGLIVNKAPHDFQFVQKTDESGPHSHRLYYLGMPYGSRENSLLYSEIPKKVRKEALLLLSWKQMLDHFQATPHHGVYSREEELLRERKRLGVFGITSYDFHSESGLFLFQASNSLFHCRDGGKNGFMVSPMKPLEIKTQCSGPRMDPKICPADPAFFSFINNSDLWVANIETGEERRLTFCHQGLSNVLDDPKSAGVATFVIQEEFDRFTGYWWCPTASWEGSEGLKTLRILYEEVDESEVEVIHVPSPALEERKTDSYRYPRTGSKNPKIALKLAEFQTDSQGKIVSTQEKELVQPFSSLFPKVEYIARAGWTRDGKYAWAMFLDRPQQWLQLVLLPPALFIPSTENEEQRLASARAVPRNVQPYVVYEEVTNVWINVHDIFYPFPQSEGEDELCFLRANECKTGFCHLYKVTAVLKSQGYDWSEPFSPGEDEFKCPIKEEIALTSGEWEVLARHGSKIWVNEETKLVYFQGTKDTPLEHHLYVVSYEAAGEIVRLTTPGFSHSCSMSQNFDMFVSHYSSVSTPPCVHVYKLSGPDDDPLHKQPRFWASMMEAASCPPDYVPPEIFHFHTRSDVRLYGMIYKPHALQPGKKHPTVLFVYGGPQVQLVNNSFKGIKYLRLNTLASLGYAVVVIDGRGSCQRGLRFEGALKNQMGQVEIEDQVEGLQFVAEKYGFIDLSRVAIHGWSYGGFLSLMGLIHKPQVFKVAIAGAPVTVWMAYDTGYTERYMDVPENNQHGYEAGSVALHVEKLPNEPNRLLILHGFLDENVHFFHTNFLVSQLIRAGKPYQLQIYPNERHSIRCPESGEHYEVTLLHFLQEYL
IC50 (recombinant human DPP7) [nM],IC50 (recombinant human DPP9) [nM],IC50 (recombinant human PREP) [nM],IC50 (Recombinant human FAP) [nM],IC50 (DPP4) [nM],Compound
121,567,429,1.1,926,"N#C[C@@H]1CCCN1C(=O)CN1CC[C@H](Nc2ccc(C(=O)Nc3cccnc3)c3ncccc23)C1 [Example 290, N-(3-pyridyl)-5-[[(3S)-1-[2-oxo-2-[(2S)-2-cyanopyrrolidin-1-yl]ethyl]pyrrolidin-3-yl]amino]quinoline-8-carboxamide]"
173,2840,2110,4.4,12900,"N#C[C@@H]1CCCN1C(=O)CN1CC[C@H](Nc2ccc(C(=O)Nc3ccncc3)c3ncccc23)C1 [Example 291, N-(4-pyridyl)-5-[[(3S)-1-[2-oxo-2-[(2S)-2-cyanopyrrolidin-1-yl]ethyl]pyrrolidin-3-yl]amino]quinoline-8-carboxamide]"
163,371,1470,1.3,5180,"N#C[C@@H]1C[C@H](F)CN1C(=O)CN1CC[C@H](Nc2ccc(C(=O)Nc3ccncc3)c3ncccc23)C1 [Example 292, N-(4-pyridyl)-5-[[(3S)-1-[2-oxo-2-[(2S,4S)-2-cyano-4-fluoro-pyrrolidin-1-yl]ethyl]pyrrolidin-3-yl]amino]quinoline-8-carboxamide]"
122,1250,422,0.8,2670,"N#C[C@@H]1CCCN1C(=O)CN1CC[C@H](Nc2ccc(C(=O)Nc3ccccn3)c3ncccc23)C1 [Example 293, N-(2-pyridyl)-5-[[(3S)-1-[2-oxo-2-[(2S)-2-cyanopyrrolidin-1-yl]ethyl]pyrrolidin-3-yl]amino]quinoline-8-carboxamide]"
64.1,87.8,724,0.7,865,"N#C[C@@H]1C[C@H](F)CN1C(=O)CN1CC[C@H](Nc2ccc(C(=O)Nc3cccnc3)c3ncccc23)C1 [Example 295, N-(3-pyridyl)-5-[[(3S)-1-[2-oxo-2-[(2S,4S)-2-cyano-4-fluoro-pyrrolidin-1-yl]ethyl]pyrrolidin-3-yl]amino]quinoline-8-carboxamide]"
142,10600,6440,4.7,15600,"CC(=O)Nc1ccc(N[C@H]2CCN(CC(=O)N3CCC[C@H]3C#N)C2)c2cccnc12 [Example 296, N-[5-[[(3S)-1-[2-oxo-2-[(2S)-2-cyanopyrrolidin-1-yl]ethyl]pyrrolidin-3-yl]amino]-8-quinolyl]acetamide]"
13.5,4200,4750,2.9,2810,"CC(=O)Nc1ccc(N[C@H]2CCN(CC(=O)N3C[C@@H](F)C[C@H]3C#N)C2)c2cccnc12 [Example 297, N-[5-[[(3S)-1-[2-oxo-2-[(2S,4S)-2-cyano-4-fluoro-pyrrolidin-1-yl]ethyl]pyrrolidin-3-yl]amino]-8-quinolyl]acetamide]"
257,3070,6520,2.1,1860,"N#C[C@@H]1C[C@H](F)CN1C(=O)CN1CC[C@H](Nc2ccc(NC(=O)c3ccccc3)c3ncccc23)C1 [Example 298, N-[5-[[(3S)-1-[2-oxo-2-[(2S,4S)-2-cyano-4-fluoro-pyrrolidin-1-yl]ethyl]pyrrolidin-3-yl]amino]-8-quinolyl]benzamide]"
1050,7600,117,8,18800,"CCN(c1cnc2ccccc2c1)C1CCN(CC(=O)N2C[C@@H](F)C[C@H]2C#N)CC1 [Example 304, (2S,4S)-1-[2-[4-[ethyl(3-quinolyl)amino]-1-piperidyl]acetyl]-4-fluoro-pyrrolidine-2-carbonitrile]"
307,5200,4910,7,4570,"CCOc1ccc(NC2CCN(CC(=O)N3C[C@@H](F)C[C@H]3C#N)CC2)c2cccnc12 [Example 371, (2S,4S)-1-[2-[4-[(8-ethoxy-5-quinolyl)amino]-1-piperidyl]acetyl]-4-fluoro-pyrrolidine-2-carbonitrile]"
645,945,2000,51.6,1650,"N#C[C@@H]1C[C@H](F)CN1C(=O)CN1CCC(Nc2cccc3ncsc23)CC1 [Example 372, (2S,4S)-1-[2-[4-(1,3-benzothiazol-7-ylamino)-1-piperidyl]acetyl]-4-fluoro-pyrrolidine-2-carbonitrile]"
226,4370,870,7,3510,"N#C[C@@H]1C[C@H](F)CN1C(=O)CN1CCC(Nc2cc(Cl)c3ncccc3c2)CC1 [Example 376, (2S,4S)-1-[2-[4-[(8-chloro-6-quinolyl)amino]-1-piperidyl]acetyl]-4-fluoro-pyrrolidine-2-carbonitrile]"
358,1320,1420,5.9,1520,"CNC(=O)c1ccc(NC2CCN(CC(=O)N3C[C@@H](F)C[C@H]3C#N)CC2)c2cccnc12 [Example 390, N-methyl-5-[[1-[2-oxo-2-[(2S,4S)-2-cyano-4-fluoro-pyrrolidin-1-yl]ethyl]-4-piperidyl]amino]quinoline-8-carboxamide]"
361,1090,421,1.3,2540,"N#C[C@@H]1C[C@H](F)CN1C(=O)CN1CCC(Nc2ccc(C(=O)Nc3ccccc3)c3ncccc23)CC1 [Example 394, 5-[[1-[2-oxo-2-[(2S,4S)-2-cyano-4-fluoro-pyrrolidin-1-yl]ethyl]-4-piperidyl]amino]-N-phenyl-quinoline-8-carboxamide]"

Compound,IC50 (recombinant human DPP7) [nM],IC50 (recombinant human DPP9) [nM],IC50 (recombinant human PREP) [nM],IC50 (Recombinant human FAP) [nM],IC50 (DPP4) [nM]
"CCN(c1cnc2ccccc2c1)C1CCN(CC(=O)N2CCC[C@H]2C#N)CC1 [Example 302, (2S)-1-[2-[4-[ethyl(3-quinolyl)amino]-1-piperidyl]acetyl]pyrrolidine-2-carbonitrile]",7350,≥ 100000,350,22.2,≥ 100000
"CCN(c1ccc2ncccc2c1)C1CCN(CC(=O)N2CCC[C@H]2C#N)CC1 [Example 303, (2S)-1-[2-[4-[ethyl(6-quinolyl)amino]-1-piperidyl]acetyl]pyrrolidine-2-carbonitrile]",1940,≥ 100000,483,9.2,≥ 100000
"CCN(c1ccc2ncccc2c1)C1CCN(CC(=O)N2C[C@@H](F)C[C@H]2C#N)CC1 [Example 306, (2S,4S)-1-[2-[4-[ethyl(6-quinolyl)amino]-1-piperidyl]acetyl]-4-fluoro-pyrrolidine-2-carbonitrile]",477,13200,129,4.4,24300
